{"source": "patent US20150038707A1", "about": "“PROCESS FOR MAKING CGRP RECEPTOR ANTAGONISTS” (Merck Sharp & Dohme Corp., priority 2012, published 2015)", "key": {"[1]": {"test_system": "Ae. Aegypti strains Houston, That and Isla Mujer", "assay": "Spatial repellency on metabolically resistant mosquitoes (Example 6)", "type": "in vivo", "description": "(§1) The four compounds of formula I described in Example 2 were tested for spatial repellency (directed movement away from the chemical source without the insect making physical contact with the treated surface) at low doses on female Aedes aegypti (Thailand strain) mosquitoes. The spatial repellency response was determined by use of the spatial repellency assay disclosed by Grieco et al. in “A New Classification System for the Actions of IRS Chemicals Traditionally Used for Malaria Control” in Plos One, Issue 8 (2007) (available at www.plosone.org) which is incorporated herein by reference for all relevant and consistent purposes. The assay used was a cylindrical assembly that included a treatment chamber at one end and a control chamber at the other end. The treatment chamber included a netting strip (nylon organdy) that was treated with the insecticide of interest at the relevant dose. The treatment chamber and control chamber were connected by a clear cylinder and were separated from the clear cylinder by butterfly valves. Twenty (20) mosquitoes were introduced into the clear central chamber and the butterfly valves were opened after 30 seconds. After 10 minutes, the valves were closed and the number of mosquitoes in each chamber was counted.\n(§2) The spatial repellency protocol of Example 3 was used to determine spatial repellency against mosquitoes (Ae. Aegypti) that had acquired metabolic resistance against pyrethroids. DDT and transfluthrin were also tested. Three mosquito strains were tested—Houston which is pyrethroid susceptible, That which is pyrethroid tolerant and Isla Mujer which is metabolically pyrethroid resistant."}, "[2]": {"test_system": "female Aedes aegypti (Thailand strain) mosquitoes", "assay": "Contact irritancy assay on mosquitoes (Example 2)", "type": "in vivo", "conditions": "netting treated at 0.0025-2.5 nmol/cm^2; for contact irritancy (FIG. 1): 10 minutes", "description": "(§3) Four compounds of formula (I) were tested for contact irritancy (i.e., movement away from the source after physical contact) at low doses on female Aedes aegypti (Thailand strain) mosquitoes. The contact irritant response was determined by use of the contact irritant assay disclosed by Grieco et al. in “A New Classification System for the Actions of IRS Chemicals Traditionally Used for Malaria Control,” Plos One, Issue 8 (2007) (available at www.plosone.org). The assay used was a cylindrical assembly that included a metal treatment end to which 10 mosquitoes were introduced and a clear receiving chamber. The treatment end included a netting strip (nylon organdy) that was treated with the insecticide of interest at the relevant dose. A butterfly valve separated the treatment end from the remainder of the assembly.\n(§4) Each composition was applied to the netting strip at a varied dose via a 1.5 ml acetone solution. Four (4) treatment concentrations were used—0.0025 nmol/cm^2, 0.025 nmol/cm^2, 0.25 nmol/cm^2 and 2.5 nmol/cm^2. Netting was allowed to dry for 15 minutes prior to placement in the cylinder. Control assays were performed with netting treated with acetone only.\n(§5) For each run, 10 mosquitoes were transferred into the treatment end of the assembly and, after 30 seconds, the butterfly valve was opened. The valve was closed after 10 minutes and the number of mosquitoes in the clear end (i.e., the number of escaped mosquitoes) was tested."}, "[3]": {"test_system": "female Aedes aegypti (Thailand strain) mosquitoes", "assay": "Contact irritancy and spatial repellency screening (Example 4)", "type": "in vivo", "conditions": "Dosage 25 nmol/cm^2; mapped with 3000 other compounds", "description": "as §3, §1\nDosage was 25 nmol/cm^2. Several known compounds were also mapped for comparison—alphacypermethrin, cypermethrin, propoxur, bendiocarb, permethrin, SS220, DDT, deet and chlorpyrifos."}, "[4]": {"test_system": "Ae. Aegypti, That strain (pyrethroid tolerant)", "assay": "Contact irritancy on pyrethroid tolerant mosquitoes (Example 5)", "type": "in vivo", "description": "as §3, §4, §5\nas §2, with “contact irritancy” for “spatial repellency”, “2” for “3”, “Alphacypermethrin” for “DDT”"}, "[5]": {"test_system": "An. Vestitipennis", "conditions": "stated as identical to night one of compound 1405; cited from earlier work"}, "[6]": {"test_system": "female Aedes aegypti (Thailand strain) mosquitoes", "assay": "Spatial repellency assay on mosquitoes (Example 3)", "type": "in vivo", "conditions": "netting treated at 0.0025-2.5 nmol/cm^2", "description": "as §1\nThe compositions were applied to the net strips by the same methods and at the same concentrations as described in Example 2 above. […]"}, "[7]": {"test_system": "Ae. Aegypti, Isla Mujer strain (metabolically pyrethroid resistant)", "assay": "Contact irritancy on metabolically resistant mosquitoes (Example 5)", "type": "in vivo", "description": "as §3, §4, §5\nas §2, with “contact irritancy” for “spatial repellency”, “2” for “3”, “Alphacypermethrin” for “DDT”"}, "[8]": {"test_system": "Ae. aegypti Houston strain (pyrethroid susceptible)", "assay": "Toxicity assay on treated netting (Example 7), Houston strain", "type": "in vivo", "description": "(§6) Several compounds were tested to determine their toxic effect on Ae. aegypti mosquitoes. Three mosquito strains were tested—Houston which is pyrethroid susceptible, That which is pyrethroid tolerant and Isla Mujer which is metabolically pyrethroid resistant.\n(§7) The toxicity assay involved a single chamber to which treated netting was added. Twenty (20) mosquitoes were transferred to the chamber. After 1 hour, the number of knocked down mosquitoes was recorded and all mosquitoes were transferred to holding cartoons. The mosquitoes were given a 10% sucrose-soaked cotton ball and returned to the insectary. Mortaility was measured after 24 hours. A control assay using acetone-treated netting was used. Six replicates were performed at each treatment concentration."}, "[9]": {"test_system": "Ae. aegypti Isla mujeres strain (metabolically pyrethroid resistant)", "assay": "Toxicity assay on treated netting (Example 7), Isla mujeres strain", "type": "in vivo", "description": "as §6, §7"}, "[10]": {"test_system": "Ae. aegypti Thai strain (pyrethroid tolerant)", "assay": "Toxicity assay on treated netting (Example 7), Thai strain", "type": "in vivo", "description": "as §6, §7"}, "[11]": {"conditions": "Dose 0.025 nm/cm^2, Time 1 hour"}, "[12]": {"conditions": "Dose 0.025 nm/cm^2, Time 24 hours"}, "[13]": {"conditions": "Dose 0.05 nm/cm^2, Time 24 hours"}, "[14]": {"conditions": "Dose 0.0725 nm/cm^2, Time 1 hour"}, "[15]": {"conditions": "Dose 0.0725 nm/cm^2, Time 24 hours"}, "[16]": {"conditions": "Dose 0.1 nm/cm^2, Time 24 hours"}, "[17]": {"conditions": "Dose 0.125 nm/cm^2, Time 1 hour"}, "[18]": {"conditions": "Dose 0.125 nm/cm^2, Time 24 hours"}, "[19]": {"conditions": "Dose 0.2 nm/cm^2, Time 24 hours"}, "[20]": {"conditions": "Dose 0.25 nm/cm^2, Time 24 hours"}, "[21]": {"conditions": "Dose 2.5 nm/cm^2, Time 24 hours"}}, "data": [{"smiles": "CC(C)c1cccc(COC(=O)C2C(C=C(Cl)C(F)(F)F)C2(C)C)c1F", "note": "(stereo not drawn) [Compound 1415]", "values": [{"measurement": "spatial repellency, all strains (FIG. 5)", "setting": "[1]", "value": "spatial repellants for all strains"}, {"measurement": "contact irritancy, dose compared with alphacypermethrin (FIG. 1)", "setting": "[2]", "value": "showed contact irritancy at a lower dose than alphacypermethrin"}, {"measurement": "contact irritancy (FIG. 1)", "setting": "[2]", "value": "showed contact irritancy at relatively low doses"}, {"measurement": "contact irritancy and spatial repellency relative to screened compounds (FIG. 3)", "setting": "[3]", "value": "superior contact irritancy and spatial repellency relative to most screened compounds"}, {"measurement": "contact irritancy, tolerant strain (FIG. 4)", "setting": "[4]", "value": "contact irritants for tolerant strains"}]}, {"smiles": "Clc1ccc(C(c2ccc(Cl)cc2)C(Cl)(Cl)Cl)cc1", "note": "[DDT, dichlorodiphenyltrichloroethane]", "values": [{"measurement": "reduction in entering populations observed with DDT", "setting": "[5]", "value": 97, "unit": "%"}]}, {"smiles": "CC1(C)C(C=C(F)F)C1C(=O)OCc1ccc(F)c(C(F)(F)F)c1F", "note": "(stereo not drawn) [Compound 1403]", "values": [{"measurement": "spatial repellency, all strains (FIG. 5)", "setting": "[1]", "value": "spatial repellants for all strains"}, {"measurement": "spatial repellency, dose compared with DDT (FIG. 2)", "setting": "[6]", "value": "showed repellency at a lower dose than DDT"}, {"measurement": "contact irritancy (FIG. 1)", "setting": "[2]", "value": "showed contact irritancy at relatively low doses"}, {"measurement": "contact irritancy, resistant strain (FIG. 4)", "setting": "[7]", "value": "effective in resistant strains"}, {"measurement": "contact irritancy and spatial repellency relative to screened compounds (FIG. 3)", "setting": "[3]", "value": "superior contact irritancy and spatial repellency relative to most screened compounds"}, {"measurement": "Houston (% dead (SE))", "setting": "[8]; [11]", "value": 11.76, "unit": "%"}, {"measurement": "Houston (% dead (SE))", "setting": "[8]; [12]", "value": 15.57, "unit": "%"}, {"measurement": "Houston (% dead (SE))", "setting": "[8]; Dose 0.05 nm/cm^2, Time 1 hour", "value": 51.3, "unit": "%"}, {"measurement": "Houston (% dead (SE))", "setting": "[8]; [13]", "value": 41.18, "unit": "%"}, {"measurement": "Houston (% dead (SE))", "setting": "[8]; [14]", "value": 100, "unit": "%"}, {"measurement": "Houston (% dead (SE))", "setting": "[8]; [15]", "value": 100, "unit": "%"}, {"measurement": "Houston (% dead (SE))", "setting": "[8]; Dose 0.1 nm/cm^2, Time 1 hour", "value": 100, "unit": "%"}, {"measurement": "Houston (% dead (SE))", "setting": "[8]; [16]", "value": 100, "unit": "%"}, {"measurement": "Houston (% dead (SE))", "setting": "[8]; [17]", "value": 100, "unit": "%"}, {"measurement": "Houston (% dead (SE))", "setting": "[8]; [18]", "value": 100, "unit": "%"}, {"measurement": "Houston (% dead (SE))", "setting": "[8]; Dose 0.2 nm/cm^2, Time 1 hour", "value": 100, "unit": "%"}, {"measurement": "Houston (% dead (SE))", "setting": "[8]; [19]", "value": 100, "unit": "%"}, {"measurement": "Houston (% dead (SE))", "setting": "[8]; Dose 0.25 nm/cm^2, Time 1 hour", "value": 100, "unit": "%"}, {"measurement": "Houston (% dead (SE))", "setting": "[8]; [20]", "value": 100, "unit": "%"}, {"measurement": "Houston (% dead (SE))", "setting": "[8]; Dose 2.5 nm/cm^2, Time 1 hour", "value": 100, "unit": "%"}, {"measurement": "Houston (% dead (SE))", "setting": "[8]; [21]", "value": 100, "unit": "%"}, {"measurement": "contact irritancy, tolerant strain (FIG. 4)", "setting": "[4]", "value": "contact irritants for tolerant strains"}, {"measurement": "Isla mujeres (% dead (SE))", "setting": "[9]; [11]", "value": 0, "unit": "%"}, {"measurement": "Isla mujeres (% dead (SE))", "setting": "[9]; [12]", "value": 1.58, "unit": "%"}, {"measurement": "Isla mujeres (% dead (SE))", "setting": "[9]; Dose 0.05 nm/cm^2, Time 1 hour", "value": 0, "unit": "%"}, {"measurement": "Isla mujeres (% dead (SE))", "setting": "[9]; [13]", "value": 5.93, "unit": "%"}, {"measurement": "Isla mujeres (% dead (SE))", "setting": "[9]; [14]", "value": 0, "unit": "%"}, {"measurement": "Isla mujeres (% dead (SE))", "setting": "[9]; [15]", "value": 3.70, "unit": "%"}, {"measurement": "Isla mujeres (% dead (SE))", "setting": "[9]; Dose 0.1 nm/cm^2, Time 1 hour", "value": 0, "unit": "%"}, {"measurement": "Isla mujeres (% dead (SE))", "setting": "[9]; [16]", "value": 5.00, "unit": "%"}, {"measurement": "Isla mujeres (% dead (SE))", "setting": "[9]; [17]", "value": 0, "unit": "%"}, {"measurement": "Isla mujeres (% dead (SE))", "setting": "[9]; [18]", "value": 6.00, "unit": "%"}, {"measurement": "Isla mujeres (% dead (SE))", "setting": "[9]; Dose 0.2 nm/cm^2, Time 1 hour", "value": 70, "unit": "%"}, {"measurement": "Isla mujeres (% dead (SE))", "setting": "[9]; [19]", "value": 20, "unit": "%"}, {"measurement": "Isla mujeres (% dead (SE))", "setting": "[9]; Dose 0.25 nm/cm^2, Time 1 hour", "value": 100, "unit": "%"}, {"measurement": "Isla mujeres (% dead (SE))", "setting": "[9]; [20]", "value": 100, "unit": "%"}, {"measurement": "Isla mujeres (% dead (SE))", "setting": "[9]; Dose 2.5 nm/cm^2, Time 1 hour", "value": 100, "unit": "%"}, {"measurement": "Isla mujeres (% dead (SE))", "setting": "[9]; [21]", "value": 100, "unit": "%"}, {"measurement": "toxicity to resistant populations compared with standard compounds", "setting": "[9]; summary of Table 2", "value": "more toxic to resistant populations than permethrin, matfluthrin and transfluthrin"}, {"measurement": "Thai (% dead (SE))", "setting": "[10]; [11]", "value": 15, "unit": "%"}, {"measurement": "Thai (% dead (SE))", "setting": "[10]; [12]", "value": 0, "unit": "%"}, {"measurement": "Thai (% dead (SE))", "setting": "[10]; Dose 0.25 nm/cm^2, Time 1 hour", "value": 100, "unit": "%"}, {"measurement": "Thai (% dead (SE))", "setting": "[10]; [20]", "value": 100, "unit": "%"}, {"measurement": "Thai (% dead (SE))", "setting": "[10]; Dose 2.5 nm/cm^2, Time 1 hour", "value": 100, "unit": "%"}, {"measurement": "Thai (% dead (SE))", "setting": "[10]; [21]", "value": 100, "unit": "%"}]}]}
